Assay results from PubChem BioAssay AID1259407 (Chemical Carcinogenesis Research Information System (CCRIS), 2018).
The source made the active and inactive calls. No rule for the calls is given here.

Tested on: CCRIS mutagenicity, Ames/micronucleus/aberration tests
Test: CCRIS mutagenicity studies
[1] = Test System: AMES SALMONELLA TYPHIMURIUM, Strain/Indicator: TA1537, Metabolic Activation: NONE, Method: STANDARD PLATE
[2] = Test System: AMES SALMONELLA TYPHIMURIUM, Strain/Indicator: TA1537, Metabolic Activation: RAT, LIVER, S-9, AROCLOR 1254, Method: STANDARD PLATE
[3] = Test System: AMES SALMONELLA TYPHIMURIUM, Strain/Indicator: TA98, Metabolic Activation: NONE, Method: PREINCUBATION
[4] = Test System: AMES SALMONELLA TYPHIMURIUM, Strain/Indicator: TA100, Metabolic Activation: NONE, Method: PREINCUBATION

For `Cc1cc(N)c(C)c([N+](=O)[O-])c1N`, the mutagenic call (Test System: AMES SALMONELLA TYPHIMURIUM, Strain/Indicator: TA98, Metabolic Activation: NONE, Method: STANDARD PLATE) was “inactive; negative”, the mutagenic call (Test System: AMES SALMONELLA TYPHIMURIUM, Strain/Indicator: TA98, Metabolic Activation: RAT, LIVER, S-9, AROCLOR 1254, Method: STANDARD PLATE) was “active; positive” and the mutagenic call (Test System: AMES SALMONELLA TYPHIMURIUM, Strain/Indicator: TA100, Metabolic Activation: NONE, Method: STANDARD PLATE) was “inactive; negative”. For the same molecule, the mutagenic call (Test System: AMES SALMONELLA TYPHIMURIUM, Strain/Indicator: TA100, Metabolic Activation: RAT, LIVER, S-9, AROCLOR 1254, Method: STANDARD PLATE) was “inactive; negative”, the mutagenic call (Test System: AMES SALMONELLA TYPHIMURIUM, Strain/Indicator: TA1535, Metabolic Activation: NONE, Method: STANDARD PLATE) was “inactive; negative” and the mutagenic call (Test System: AMES SALMONELLA TYPHIMURIUM, Strain/Indicator: TA1535, Metabolic Activation: RAT, LIVER, S-9, AROCLOR 1254, Method: STANDARD PLATE) was “inactive; negative”. For the same molecule, the mutagenic call [1] was “inactive; negative”, the mutagenic call [2] was “inactive; negative” and the mutagenic call (Test System: AMES SALMONELLA TYPHIMURIUM, Strain/Indicator: TA1538, Metabolic Activation: NONE, Method: STANDARD PLATE) was “inactive; negative”. For the same molecule, the mutagenic call (Test System: AMES SALMONELLA TYPHIMURIUM, Strain/Indicator: TA1538, Metabolic Activation: RAT, LIVER, S-9, AROCLOR 1254, Method: STANDARD PLATE) was “active; positive”.
For `CCCCCCCCCCCCOS(=O)(=O)O`, the mutagenic call (Test System: AMES SALMONELLA TYPHIMURIUM, Strain/Indicator: TA98, Metabolic Activation: HAMSTER, LIVER, S-9, AROCLOR 1254 (10%), Method: PREINCUBATION) was “inactive; negative”, the mutagenic call [3] was “inactive; negative” and the mutagenic call (Test System: AMES SALMONELLA TYPHIMURIUM, Strain/Indicator: TA98, Metabolic Activation: RAT, LIVER, S-9, AROCLOR 1254 (10%), Method: PREINCUBATION) was “inactive; negative”. The mutagenic call (Test System: AMES SALMONELLA TYPHIMURIUM, Strain/Indicator: TA100, Metabolic Activation: HAMSTER, LIVER, S-9, AROCLOR 1254 (10%), Method: PREINCUBATION) was “inactive; negative”, the mutagenic call [4] was “inactive; negative” and the mutagenic call (Test System: AMES SALMONELLA TYPHIMURIUM, Strain/Indicator: TA100, Metabolic Activation: RAT, LIVER, S-9, AROCLOR 1254 (10%), Method: PREINCUBATION) was “inactive; negative”. The mutagenic call (Test System: AMES SALMONELLA TYPHIMURIUM, Strain/Indicator: TA1535, Metabolic Activation: HAMSTER, LIVER, S-9, AROCLOR 1254 (10%), Method: PREINCUBATION) was “inactive; negative”, the mutagenic call (Test System: AMES SALMONELLA TYPHIMURIUM, Strain/Indicator: TA1535, Metabolic Activation: NONE, Method: PREINCUBATION) was “inactive; negative” and the mutagenic call (Test System: AMES SALMONELLA TYPHIMURIUM, Strain/Indicator: TA1535, Metabolic Activation: RAT, LIVER, S-9, AROCLOR 1254 (10%), Method: PREINCUBATION) was “inactive; negative”. For the same molecule, the mutagenic call (Test System: AMES SALMONELLA TYPHIMURIUM, Strain/Indicator: TA1537, Metabolic Activation: HAMSTER, LIVER, S-9, AROCLOR 1254 (10%), Method: PREINCUBATION) was “inactive; negative”, the mutagenic call (Test System: AMES SALMONELLA TYPHIMURIUM, Strain/Indicator: TA1537, Metabolic Activation: NONE, Method: PREINCUBATION) was “inactive; negative” and the mutagenic call (Test System: AMES SALMONELLA TYPHIMURIUM, Strain/Indicator: TA1537, Metabolic Activation: RAT, LIVER, S-9, AROCLOR 1254 (10%), Method: PREINCUBATION) was “inactive; negative”.
For `Cc1cnc2ccc3c(ncn3C)c2n1`, the mutagenic call [3] was “inactive; negative”, the mutagenic call (Test System: AMES SALMONELLA TYPHIMURIUM, Strain/Indicator: TA98, Metabolic Activation: RAT, LIVER, S-9, AROCLOR 1254, Method: PREINCUBATION) was “inactive; negative” and the mutagenic call [4] was “inactive; negative”. The mutagenic call (Test System: AMES SALMONELLA TYPHIMURIUM, Strain/Indicator: TA100, Metabolic Activation: RAT, LIVER, S-9, AROCLOR 1254, Method: PREINCUBATION) was “inactive; negative”.
With `Cn1c(-c2ccccc2)c(N=Nc2scc[n+]2C)c2ccccc21` the mutagenic call (Test System: AMES SALMONELLA TYPHIMURIUM, Strain/Indicator: TA1537, Metabolic Activation: HAMSTER, LIVER, S-9, AROCLOR 1254, Method: STANDARD PLATE) was “active; positive”, the mutagenic call [1] was “active; positive” and the mutagenic call [2] was “active; positive”. The mutagenic call (Test System: Mouse lymphoma, Strain/Indicator: L5178Y (tk+/tk-), Metabolic Activation: None, Method: Suspension/plate) was “active; inconclusive (previous evaluation positive)” and the mutagenic call (Test System: Mouse lymphoma, Strain/Indicator: L5178Y (tk+/tk-), Metabolic Activation: Rat, Liver, S-9, Aroclor 1254, Method: Suspension/plate) was “active; inconclusive (previous evaluation positive)”.
